# How the values were obtained:
# Canis familiaris [1] = experiment: Total electrolytic excretion of potassium in urine of dogs after intravenous administration of 30.3 uM/Kg of drug; format: ADME, organism-based, Canis lupus familiaris; settings: dog, in vivo
# Canis familiaris [2] = experiment: Total electrolytic excretion of sodium in urine of dogs after peroral administration of 102 uM/Kg of drug; format: ADME, organism-based, Canis lupus familiaris; settings: dog, in vivo, po
# Canis familiaris [3] = experiment: Total electrolytic excretion of sodium in urine of dogs after peroral administration of 50.8 uM/Kg of drug; format: ADME, organism-based, Canis lupus familiaris; settings: dog, in vivo, po
# Rattus norvegicus [4] = experiment: Total electrolytic excretion of chlorine in urine of rats after peroral administration of 102 uM/Kg of drug; format: ADME, organism-based; settings: in vivo, po
# Canis familiaris [5] = experiment: Total electrolytic excretion of chlorine in urine of dogs after peroral administration of 68.1 uM/Kg of drug; format: ADME, organism-based, Canis lupus familiaris; settings: dog, in vivo, po
# Canis familiaris [6] = experiment: Tested for the diuretic activity by measuring the urinary volume after peroral administering 34.1 uM/Kg of drug in dogs; format: ADME, organism-based, Canis lupus familiaris, Urine; settings: dog, in vivo, po
# Canis familiaris [7] = experiment: Tested for the diuretic activity by measuring the urinary volume after intravenous administering 9.09 uM/Kg of drug in dogs; format: ADME, organism-based, Canis lupus familiaris, Urine; settings: dog, in vivo
# Rattus norvegicus [8] = experiment: Tested for the diuretic activity by measuring the urinary volume after peroral administering 102 uM/Kg of drug in rats; format: ADME, organism-based, Urine; settings: in vivo, po
# Canis familiaris [9] = experiment: Tested for the diuretic activity by measuring the urinary volume after intravenous administering 30.3 uM/Kg of drug in dogs; format: ADME, organism-based, Canis lupus familiaris, Urine; settings: dog, in vivo
# Canis familiaris [10] = organism: Canis familiaris; experiment: Systemic cardio vascular Hemodynamics of cardiac index was measured in Beagle dogs after giving the dose of MNX; format: functional, Canis lupus familiaris, Heart
# Canis familiaris [11] = organism: Canis familiaris; experiment: Systemic cardio vascular Hemodynamics of cardiac index was measured in Beagle dogs after giving the dose of MNX plus the drug; format: functional, Canis lupus familiaris, Heart
# Canis familiaris [12] = organism: Canis familiaris; experiment: Systemic cardio vascular Hemodynamics of mean arterial pressure was measured in Beagle dogs after giving the dose of MNX plus the drug; format: functional, Canis lupus familiaris, Heart
# Canis familiaris [13] = organism: Canis familiaris; experiment: Tissue vascular resistance of large intestine was measured in Beagle dogs after giving the dose of MNX plus the drug; format: functional, Canis lupus familiaris
# Canis familiaris [14] = organism: Canis familiaris; experiment: Tissue vascular resistance of left ventricle was measured in Beagle dogs before treatment; format: functional, Canis lupus familiaris, Heart left ventricle
# Canis familiaris [15] = organism: Canis familiaris; experiment: Tissue vascular resistance of pancreas was measured in Beagle dogs after giving the dose of MNX plus the drug; format: functional, Canis lupus familiaris
# Canis familiaris [16] = organism: Canis familiaris; experiment: Tissue vascular resistance of right atrium was measured in Beagle dogs after giving the dose of MNX; format: functional, Canis lupus familiaris, Cardiac atrium
# Canis familiaris [17] = organism: Canis familiaris; experiment: Tissue vascular resistance of right atrium was measured in Beagle dogs after giving the dose of MNX plus the drug; format: functional, Canis lupus familiaris, Cardiac atrium
# Rattus norvegicus [18] = experiment: Ratio of Total electrolytic excretion of sodium and potassium in urine of rats after intravenous administration of 3.03 uM/Kg of drug; format: ADME, organism-based; settings: in vivo
# Canis familiaris [19] = experiment: Total electrolytic excretion of chlorine in urine of dogs after intravenous administration of 30.3 uM/Kg of drug; format: ADME, organism-based, Canis lupus familiaris; settings: dog, in vivo
# Rattus norvegicus [20] = experiment: Tested for the diuretic activity by measuring the urinary volume after peroral administering 341 uM/Kg of drug in rats; format: ADME, organism-based, Urine; settings: in vivo, po
smiles,measurement,setting,value
C1CCC(N=C(NC2CCCCC2)N2CCOCC2)CC1,Excretion K+,Canis familiaris [1],1.6 m equiv
same,Excretion Na+,Canis familiaris [2],22.5 m equiv
same,Excretion Na+,Canis familiaris [3],11.9 m equiv
same,Excretion Cl-,Rattus norvegicus [4],1.65 m equiv
same,Excretion Cl-,Canis familiaris [5],12.3 m equiv
same,V,Canis familiaris [6],77 mL
same,V,Canis familiaris [7],87 mL
same,V,Rattus norvegicus [8],10 mL
same,V,Canis familiaris [9],114 mL
same,CI,Canis familiaris [10],260 mL/min/kg
same,CI,Canis familiaris [11],138 mL/min/kg
same,MAP,Canis familiaris [12],118 mmHg
same,TVR,Canis familiaris [13],340 mmHg·min·g/mL
same,TVR,Canis familiaris [14],112 mmHg·min·g/mL
same,TVR,Canis familiaris [15],219 mmHg·min·g/mL
same,TVR,Canis familiaris [16],37 mmHg·min·g/mL
same,TVR,Canis familiaris [17],573 mmHg·min·g/mL
same,Ratio,Rattus norvegicus [18],8.4
same,Excretion Cl-,Canis familiaris [19],12.5 m equiv
same,V,Rattus norvegicus [20],10.2 mL
